The values that follow come from patent US4885361A, “Sulfated oligosaccharides” (Hoffmann-La Roche Inc., priority 1987, dated 1989).

Data set [1] relates to Factor Xa. As to the kind of experiment: anti-Xa Clotting Assay. The data set is classed as biochemical. As to conditions: concentration which leads to a coagulation time double the control value; citrated plasma, 37° C. The method, then: anti-Xa Clotting Assay: 25 μl of citrated plasma having various concentrations of test compound are mixed with 75 μl of Factor Xa (the activated blood coagulation factor X) diluted 1:100 with 0.63% citrated buffer (pH 7.3) which contains 41 mM imidazole, 82 mM NaCl and 0.1% albumin. After warming to 37° C. for 2 minutes 200 μl of a 1:1 mixture of Factor X Deficient Plasma and Platelet Substitute are added and the mixture is incubated at 37° C. for 20 seconds. After the addition of 100 μl of prewarmed 50 mM calcium chloride solution the coagulation time is measured in a Fibrometer.
(§1) The activity of the test compound is given as the IC50 which is the concentration [μg/ml] which leads to a coagulation time which is double the control value.

The test system of data set [2] is citrated human plasma (aPTT, coagulation). The data set can be described thus: aPTT (activated partial thromboplastin time) Test. The data set is classed as biochemical. The settings on record: concentration which leads to a coagulation time double the control value, 37° C. The procedure: aPTT (activated partial thromboplastin time) Test (see Walenga et al., CRC Critical Reviews in Laboratory Sciences 22 (4) 361-389 (1986)): 100 μl of citrated human plasma, which contains various concentrations of test compound, is mixed at 37° C. for 8 minutes with 100μ of Activated Thrombofax (ellagic acid as contact activator and bovine cephalin as platelet lipid substitute). 100 μl of pre-warmed 25 mM calcium chloride solution are then added and the coagultion time is measured in a Fibrometer Coagulation Timer.
as §1

The test system of data set [3] is Factor Xa. The data set can be described thus: Inhibition of Factor Xa in the Chromogenic Substrate Assay. Format: biochemical. As to conditions: Factor Xa 2.8 nkat/ml, Bz-CO-Ile-Glu-Arg-NH.pNA.
For data set [4], the system named is Swiss 3T3 mouse fibroblastoid cells. The data set can be described thus: anti-proliferative activity, Swiss 3T3 cells. The data set is classed as cell-based. As to conditions: net proliferation, cells collected on the 4th day, 10% calf serum. The procedure: (§2) Cells of different origin (Swiss 3T3 mouse fibroblastoid cells, HSMC: human smooth muscle cells and endothelial cells, both isolated from human umbilical cord veins) in RPMI 1640 medium containing 10% calf serum (Swiss 3T3 cells), 15% fetal calf serum (HSMC) or 15% fetal calf serum plus 300 μg/ml of endothelial cell growth supplement (endothelial cells) were cultivated at 37° C. in water-saturated air/5% Co2. Confluent cultures were then washed once with HBSS, removed with 0.05% trypsin/0.02%EDTA and collected by centrifugation. The cells were applied to cell culture plates with a density of 5000 cells/culture and the test compound was added one hour later. The cells were then incubated at 37° C. in air/5% CO2 and collected on the 4th day (Swiss 3T3) and on the 7th day (HSMC and endothelial cells). In order to determine th number of cells, these were washed once with HBSS and adhering cells were incubated for 10 minutes at 37° C. with 0.5 ml of trypsin/EDTA solution for separation. 0.5 ml of formol solution (0.5% paraformaldehyde, 0.145M NaCl, 1.3 mM EDTA) was added to each culture in order to fix the cells. […] The number of cells was determined with a Coulter counter. The inhibitory action by the test compounds was determined as follows: [formula] with the net proliferation being the number of cells at the end of the test minus the number of cells on day 1 (=24 hour after inoculation). […]

Data set [5] deals with thrombin (IIa). As to the kind of experiment: Inhibition of Thrombin in the Chromogenic Substrate Assay. The data set is classed as biochemical. The settings on record: amidolytic activity of thrombin reduced by 50% vs plasma control; anti-thrombin III, pH 8.4. The method, then: Inhibition of Thrombin or Factor Xa in the Chromogenic Substrate Assay (Teien et al., Thrombosis Research 10, 399-410 (1977)): The determination was effected in a Cobas-Bio centrifugal automatic spectrophotometer. The buffer solution used consisted of 50 mM Tris buffer, 180 mM NaCl, 7.5 mM EDTA Na2, 1% PEG 6000 (a polyethylene glycol of mol. weight 6000) and 0.02% Tween 80 (a polyoxyethylene sorbitanmonooleate), pH 8.4. The test solution consisted of 50 μl of buffer, 30 μl of anti-thrombin III (1 U/ml), and 20 μl of plasma which contained various concentrations of test compounds. 30 μl of sample solution and 20 μl of water with 180 μl of thrombin were added to the test cuvette in the automatic analyzer. After incubation at 37° C. for 240 seconds 60 μl of the p-nitranilide, H-D-Phe-Pip-Arg-NH.pNA, (0.75 mM in water) and 20 μl of water were added. The liberation of pNA (p-nitroaniline) was followed during 60 seconds at 405 nm in 10 second intervals in comparison to water as the blank. The inhibitory activity is given as the IC50 which is the concentration [μg/ml] at which the amidolytic activity of thrombin is reduced by 50% in comparison to the plasma control value.

Data set [6] concerns HSMC: human smooth muscle cells. As to the kind of experiment: anti-proliferative activity, human smooth muscle cells. Format: cell-based. The settings on record: net proliferation, cells collected on the 7th day, 15% fetal calf serum. The method, then: as §2
In data set [7] the test system is bloody lesions of the mucous membrane of the stomach. The data set can be described thus: mucosa-protective properties (ethanol-induced stomach lesions). The data set is classed as in vivo. As to conditions: 30 mg/kg oral, 30 minutes prior to ethanol, rat, vs control group. The method, then: The test procedure described hereinafter can be used to determine the mucosa-protective properties:
Oral administration of absolute ethanol to male rats in a dosage of 1 ml per rat leads within 1 hour to bloody lesions of the mucous membrane of the stomach. Various dosages of the substances to be tested (suspended in 0.125% carboxymethylcellulose) or the vehicle alone (control) are administered orally to the rats (1 ml per rat) 30 minutes prior to the treatment with ethanol. One hour after the administration of the ethanol the animals are killed, their stomachs are investigated for the presence of lesions and the number and the total extent of such lesions are determined.

Data set [8] relates to mouse. As to the kind of experiment: acute toxicity determination in the mouse. Format: in vivo. The method, then:
In an acute toxicity determination in the mouse the compound of Example 1 was still not lethal after the intravenous application of 500 mg/kg or after the subcutaneous application of 4000 mg/kg.

For the substance Heparin [reference compound], the “Coagulation inhibition IC50, Xa” value in data set [1] came to 0.6 µg/mL. In addition, the “Coagulation inhibition IC50, aPTT” value in data set [2] was 1.2 µg/mL. In addition, the “Chromogenic Substrate (amidolytic activity) IC50, Xa” value in data set [3] was 2.7 µg/mL. For the same substance, the “IC50 Swiss 3T3” value in data set [4] stood at 35 µg/mL. Besides, the “Chromogenic Substrate (amidolytic activity) IC50, IIa” value in data set [5] was 1.9 µg/mL. Further, the “IC50 HSCM” value in data set [6] is 45 µg/mL.
On to “trestatin A sulfate sodium salt [Example 1]”, for which the “Coagulation inhibition IC50, Xa” value in data set [1] is greater than 30 µg/mL. Besides, in data set [2], the “Coagulation inhibition IC50, aPTT” value was found to be 7 µg/mL. The “Chromogenic Substrate (amidolytic activity) IC50, Xa” value in data set [3] turned out to be 550 µg/mL. Besides, in data set [4], the “IC50 Swiss 3T3” value worked out at 30 µg/mL. The “Chromogenic Substrate (amidolytic activity) IC50, IIa” value in data set [5] was greater than 1000 µg/mL. The “reduction of the number of lesions” value in data set [7] came out at 28%. In data set [6], the “IC50 HSCM” value was 20 µg/mL. In data set [8] (intravenous), the “lethal dose (not lethal after), intravenous” value is greater than 500 mg/kg. Further, the “lethal dose (not lethal after), subcutaneous” value in data set [8] (subcutaneous) is greater than 4000 mg/kg.
